Structures can show the parent of a compound that is named as a salt.
Assays:
human C1s = biological target: T1, human C1s (Homo sapiens, UniProt P09871); assay: Human C1s enzyme assay; format: biochemical
T1 construct: Recombinant human C1s (358–688 aa) fused with both the N-terminal IgG signal peptide; IgG signal peptide (N); His tag (C); made in house; host or cells: HEK293 cells
T1 sequence (P09871 358-688): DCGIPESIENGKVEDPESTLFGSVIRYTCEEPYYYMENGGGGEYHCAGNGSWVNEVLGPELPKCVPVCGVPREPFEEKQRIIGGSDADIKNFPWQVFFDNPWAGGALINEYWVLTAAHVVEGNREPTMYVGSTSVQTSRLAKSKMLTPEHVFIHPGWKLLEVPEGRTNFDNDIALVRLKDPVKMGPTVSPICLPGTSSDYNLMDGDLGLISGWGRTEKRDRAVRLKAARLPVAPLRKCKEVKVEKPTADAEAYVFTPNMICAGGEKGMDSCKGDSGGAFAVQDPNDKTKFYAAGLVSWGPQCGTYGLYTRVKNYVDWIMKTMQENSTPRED
Protocol: Recombinant human C1s (358–688 aa) fused with both the N-terminal IgG signal peptide and the C-terminal His tag was expressed in HEK293 cells and purified. The assay was performed in a 384-well clear plate in a total volume of 20 μL of an assay buffer 1 [50 mmol/L Tris–HCl (pH 7.5), 150 mmol/L NaCl, 0.01% (w/v) Tween 20, and 0.01% (w/v) BSA]. Compounds were dissolved in DMSO and diluted to various concentrations. After 20 nL of compound solution was added to the plate, 10 μL of substrate solution containing a 250 μmol/L Z-Lys-SBzl peptide (Watanabe Chemical, Hiroshima, Japan) and 250 μmol/L DTNB (5,5′-dithiobis(2-nitrobenzoic acid)) (Sigma, MO, USA) was added to the plate. Then, 8 nmol/L human C1s was added to the plate and incubated at room temperature for 60 min. The absorbance at 405 nm was detected using an EnVision multilabel plate reader. […] The IC50 values were calculated using IDBS XLfit software.

[1] = likely due to the basic amidine moiety; cited from earlier work
human thrombin = biological target: T2, human thrombin (Homo sapiens, UniProt P00734); assay: Human thrombin enzyme assay; format: biochemical
T2 construct: purchased AnaSpec
Protocol: The human thrombin enzyme activity was determined by a SensoLyte 520 thrombin activity assay kit (AnaSpec, CA, USA). Purified human thrombin and the substrate were diluted in the assay buffer 1. After 20 nL of compound solution was added to a 384-well black plate, 3 μL of the 2 μmol/L 5-FAM/QXLTM 520 thrombin substrate was added to the plate. Then, 8 nmol/L human thrombin was added to the plate and incubated at room temperature for 60 min. The fluorescence at an excitation wavelength of 485 nm and an emission wavelength of 535 nm was detected using an EnVision multilabel plate reader.

human trypsin = assay: Human trypsin enzyme assay; format: biochemical
Protocol: Recombinant human trypsin (FUJIFILM Wako, Osaka, Japan) and the substrate were diluted in an assay buffer [50 mmol/L Tris–HCl (pH 7.5), 145 mmol/L NaCl, 2 mmol/L CaCl2, and 0.01% (w/v) Tween 20]. After 20 nL of compound solution was added to a 384-well black plate, 3 μL of substrate solution containing 25 μmol/L Boc-Phe-Ser-Arg-MCA (Peptide Institute, Osaka, Japan) was added to the plate. Then, 6 mU/mL human trypsin was added to the plate and incubated at room temperature for 60 min. The fluorescence at an excitation wavelength of 360 nm and an emission wavelength of 460 nm was detected using an EnVision multilabel plate reader.

human factor D = biological target: T3, human factor D (Homo sapiens, UniProt P00746); assay: Human factor D enzyme assay; format: biochemical
T3 construct: Recombinant human factor D (26–253 aa) fused with both the N-terminal IgG signal peptide; IgG signal peptide (N); His tag (C); made in house; host or cells: Expi293 cells
Excerpt: Recombinant human factor D (26–253 aa) fused with both the N-terminal IgG signal peptide and the C-terminal His tag was expressed in Expi293 cells and purified. The human factor D assay condition was the same as for human MASP2, except that the enzyme solution concentration was 20 nmol/L and the substrate solution contained a 400 μmol/L Z-Lys-SBzl peptide and 50 μmol/L BES-Thio.

human MASP2 = biological target: T4, human MASP2 (Homo sapiens, UniProt O00187); assay: Human MASP2 enzyme assay; format: biochemical
T4 construct: Recombinant human MASP2 (298–686 aa) fused with both the N-terminal IgG signal peptide; IgG signal peptide (N); His tag (C); made in house; host or cells: Expi293 cells
Protocol: Recombinant human MASP2 (298–686 aa) fused with both the N-terminal IgG signal peptide and the C-terminal His tag was expressed in Expi293 cells and purified. The assay was performed in a 384-well black plate in a total volume of 6 μL of the assay buffer 1. After 20 nL of compound solution was added to the plate, 3 μL of substrate solution containing a 20 μmol/L Z-Gly-Arg-SBzl peptide and 20 μmol/L BES-Thio (FUJIFILM Wako, Osaka, Japan) was added to the plate. Then, 0.6 nmol/L human MASP2 was added to the plate and incubated at room temperature for 60 min. The fluorescence at an excitation wavelength of 485 nm and an emission wavelength of 535 nm was detected using an EnVision multilabel plate reader.

human C1r = biological target: T5, human C1r (Homo sapiens, UniProt P00736); assay: Human C1r enzyme assay; format: biochemical
T5 construct: Recombinant human C1r (375–705 aa) fused with both the N-terminal IgG signal peptide; IgG signal peptide (N); His tag (C); made in house; host or cells: HEK293 cells
T5 sequence (P00736 375-705): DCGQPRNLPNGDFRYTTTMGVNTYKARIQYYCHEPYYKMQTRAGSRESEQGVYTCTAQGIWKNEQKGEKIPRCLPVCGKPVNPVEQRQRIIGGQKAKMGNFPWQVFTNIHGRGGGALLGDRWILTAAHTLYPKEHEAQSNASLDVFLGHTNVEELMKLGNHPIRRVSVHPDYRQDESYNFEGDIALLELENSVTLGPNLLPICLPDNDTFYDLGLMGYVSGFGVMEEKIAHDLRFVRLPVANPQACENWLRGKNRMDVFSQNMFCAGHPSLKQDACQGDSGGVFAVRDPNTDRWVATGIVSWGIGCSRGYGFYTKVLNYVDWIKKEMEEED
Excerpt: Recombinant human C1r (375–705 aa) fused with both the N-terminal IgG signal peptide and the C-terminal His tag was expressed in HEK293 cells and purified. Human C1r assay conditions were the same as for human C1s, except that the enzyme solution concentration was 3 nmol/L and the substrate peptide was 250 μmol/L Z-Gly-Arg-SBzl (custom synthesis from Peptide Institute, Osaka, Japan) instead of Z-Lys-SBzl.

MDR1 (P-gp) = biological target: T6, MDR1 (P-gp) (Homo sapiens, UniProt P08183); assay: Membrane permeability with human MDR-1 expressing cells; format: in vitro ADME; details: human; MDR1-expressing cells, 1 μmol/L, 2 h
T6 construct: expressed in transfected cells
Protocol: (§1) The transcellular transport study was performed as reported previously.[31] In brief, the cells were grown in an HTS Transwell 96-well permeable support (pore size of 0.4 μm, 0.143 cm^2 surface area) with a polyethylene terephthalate membrane (Corning Life Sciences, Lowell, MA, USA) at a density of 1.125 × 10^5 cells/well. The cells were preincubated with M199 at 37 °C for 30 min. Subsequently, transcellular transport was initiated by the addition of M199 to apical compartments containing 1 μmol/L test compounds and terminated by the removal of each assay plate after 2 h. The aliquots in the opposite compartments were subjected to measurement for compound concentration by LC–MS/MS. Permeability was calculated using the permeated compound concentration.

[2] = biological target: T7, Human Multidrug Resistance 1 (MDR-1) Expressing Cells (Homo sapiens, UniProt P08183); assay: as above; format: in vitro ADME; details: supplementary csv
T7 construct: expressed in transfected cells
Protocol: as §1

PAMPA = format: in vitro ADME
Protocol: A PAMPA Evolution system (pION) was applied for the assay. After incubating the test compound (10 μmol/L) for 3 h at 25 °C, the permeation coefficient value was calculated with determining the test compound by LC/MS/MS.

[3] = 95% confidence intervals in parentheses

T3 sequence (P00746 26-253): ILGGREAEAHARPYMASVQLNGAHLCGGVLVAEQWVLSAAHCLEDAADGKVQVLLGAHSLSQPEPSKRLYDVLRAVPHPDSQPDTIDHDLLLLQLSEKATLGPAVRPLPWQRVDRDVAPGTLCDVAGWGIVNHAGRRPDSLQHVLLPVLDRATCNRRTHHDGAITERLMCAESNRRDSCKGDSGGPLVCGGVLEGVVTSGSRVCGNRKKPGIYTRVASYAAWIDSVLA
T4 sequence (O00187 298-686): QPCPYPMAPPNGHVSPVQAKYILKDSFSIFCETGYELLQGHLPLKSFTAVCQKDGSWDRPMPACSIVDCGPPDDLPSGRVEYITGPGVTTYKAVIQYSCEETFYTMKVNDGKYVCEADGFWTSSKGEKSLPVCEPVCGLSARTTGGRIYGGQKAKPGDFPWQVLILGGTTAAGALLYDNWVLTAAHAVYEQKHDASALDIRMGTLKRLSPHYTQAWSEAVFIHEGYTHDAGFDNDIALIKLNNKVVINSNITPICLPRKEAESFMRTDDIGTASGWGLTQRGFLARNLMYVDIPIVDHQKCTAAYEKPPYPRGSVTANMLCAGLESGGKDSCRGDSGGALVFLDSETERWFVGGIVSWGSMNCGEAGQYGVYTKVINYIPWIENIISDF

Structure (SMILES)	IC50 (human C1s; [3]) [µM]	other results
C[C@@H]1CN(c2ccc3c(N)nncc3c2)CCN1c1cccc(F)c1 [(R)-6, 6-[(3R)-4-(3-Fluorophenyl)-3-methylpiperazin-1-yl]phthalazin-1-amine]	0.82	
C[C@H]1CN(c2ccc3c(N)nncc3c2)CCN1c1cccc(F)c1 [(S)-6, 6-[(3S)-4-(3-Fluorophenyl)-3-methylpiperazin-1-yl]phthalazin-1-amine]	0.17	
Cc1cc([C@@H]2CN(c3cc(F)c4c(N)nncc4c3)CCN2c2cccc(F)c2)no1 [(S)-8, 8-Fluoro-6-[(3S)-4-(3-fluorophenyl)-3-(5-methyl-1,2-oxazol-3-yl)piperazin-1-yl]phthalazin-1-amine]	> 300	
CSc1sc(C(=N)N)cc1S(=O)(=O)c1cccc(-c2c(C)cccc2NC(=O)CCCS(C)(=O)=O)c1 [Compound 1]		in vivo pharmacokinetics (PK) properties [1]: poor
Cc1ccc(C(=O)N2CCN(c3ccc4c(N)nccc4c3)CC2)cc1 [Compound 4b, [4-(1-Aminoisoquinolin-6-yl)piperazin-1-yl](4-methylphenyl)methanone]	96	
Cc1ccc(C(=O)N2CCN(c3ccc4c(N)nncc4c3)CC2)cc1 [Compound 4c, [4-(1-Aminophthalazin-6-yl)piperazin-1-yl](4-methylphenyl)methanone]	2.5	
Cc1ccc(C(=O)N2CCN(c3ccc4cnncc4c3)CC2)cc1 [Compound 4d, (4-Methylphenyl)[4-(phthalazin-6-yl)piperazin-1-yl]methanone]	> 300	
Cc1ccccc1C(=O)N1CCN(c2ccc3c(N)nncc3c2)CC1 [Compound 4e, [4-(1-Aminophthalazin-6-yl)piperazin-1-yl](2-methylphenyl)methanone]		IC50 (human thrombin): > 30 µM; IC50 (human trypsin): > 30 µM; IC50 (human C1s; supplementary csv): 4.5 µM; IC50 (human factor D): > 30 µM; IC50 (human MASP2): > 30 µM; IC50 (human C1r): > 30 µM
Nc1nncc2cc(N3CCN(C(=O)c4ccccc4)CC3)ccc12 [Compound 4f, [4-(1-Aminophthalazin-6-yl)piperazin-1-yl](phenyl)methanone]	5.1	
Nc1nncc2cc(N3CCN(c4ccccc4)CC3)ccc12 [Compound 5a, 6-(4-Phenylpiperazin-1-yl)phthalazin-1-amine Trifluoroacetic Acid Salt]	0.58	
Nc1nncc2cc(N3CCC(c4ccccc4)CC3)ccc12 [Compound 5b, 6-(4-Phenylpiperidin-1-yl)phthalazin-1-amine Trifluoroacetic Acid Salt]	4.2	
Nc1nncc2cc(C3CCN(c4ccccc4)CC3)ccc12 [Compound 5c, 6-(1-Phenylpiperidin-4-yl)phthalazin-1-amine]	> 30	
Cc1ccccc1N1CCN(c2ccc3c(N)nncc3c2)CC1 [Compound 5d, 6-[4-(2-Methylphenyl)piperazin-1-yl]phthalazin-1-amine Trifluoroacetic Acid Salt]	1.2	
Cc1cccc(N2CCN(c3ccc4c(N)nncc4c3)CC2)c1 [Compound 5e, 6-[4-(3-Methylphenyl)piperazin-1-yl]phthalazin-1-amine]	0.56	
Cc1ccc(N2CCN(c3ccc4c(N)nncc4c3)CC2)cc1 [Compound 5f, 6-[4-(4-Methylphenyl)piperazin-1-yl]phthalazin-1-amine]	6.7	
Nc1nncc2cc(N3CCN(c4cccc(F)c4)CC3)ccc12 [Compound 5g, 6-[4-(3-Fluorophenyl)piperazin-1-yl]phthalazin-1-amine]	0.37	
Nc1nncc2cc(N3CCN(c4cccc(Cl)c4)CC3)ccc12 [Compound 5h, 6-[4-(3-Chlorophenyl)piperazin-1-yl]phthalazin-1-amine Trifluoroacetic Acid Salt]	0.39	
COc1cccc(N2CCN(c3ccc4c(N)nncc4c3)CC2)c1 [Compound 5i, 6-[4-(3-Methoxyphenyl)piperazin-1-yl]phthalazin-1-amine]	1.4	
N#Cc1cccc(N2CCN(c3ccc4c(N)nncc4c3)CC2)c1 [Compound 5j, 3-[4-(1-Aminophthalazin-6-yl)piperazin-1-yl]benzonitrile]	1.4	
Cc1cc([C@H]2CN(c3ccc4c(N)nncc4c3)CCN2c2cccc(F)c2)no1.O=C(O)C(F)(F)F [Compound (R)-7, 6-[(3R)-4-(3-Fluorophenyl)-3-(5-methyl-1,2-oxazol-3-yl)piperazin-1-yl]phthalazin-1-amine Trifluoroacetic Acid Salt]	0.0071	Papp A→B at 2 h, 1 μmol/L (MDR1 (P-gp)): 0.3 ×10⁻⁶ cm/s; MDR1 (A to B) [2]: 3 nm/s; Papp at 3 h, 10 μmol/L (PAMPA; PAMPA, pH 7.4): 1.9 ×10⁻⁶ cm/s; PAMPA at pH 7.4 (nm/sec) (PAMPA; supplementary csv): 19 nm/sec

Source: article PMC10184130
